According to patent US9526681B2, “Compositions and methods for treating dental caries” (Colgate-Palmolive Company, priority 2012, dated 2016):

System: salivary sediment (oral cavity bacteria)
Assay: Ammonia production by salivary sediment incubated with sucrose (diagnostic ammonia assay kit)
Format: cell-based
Conditions: 0.1% sucrose, 37 degrees Celsius, 30 minutes; for ammonia production, Mean: mean of three trials
Method: In order to investigate the effects of arginine alone, mixtures of arginine and bisabolol and bisabolol alone, on the production of ammonia in the present or oral bacterium the following procedures are carried out. Stimulated whole saliva is collected on ice and centrifuged for 15 minutes at 4000 rpm to obtain a pellet and salivary supernatant. The pellet, which is termed the salivary sediment, contains a representative array of the oral microbes found in the oral cavity. This pellet is washed twice in cold filter sterilized deionized water by centrifugation for 10 minutes at 4000 rpm.
The salivary sediment is then diluted to 50% with cold filter sterilized deionized water. Stock solutions of 1% arginine and 1% sucrose in filter sterilized deionized water are made, and a stock solution of 1% bisabolol in ethanol is also made. Reaction mixtures tested contain 16.7% final concentration salivary sediment, 0.1% final concentration sucrose and 0.0871% final concentration arginine. The control reaction mixture contains only salivary sediment, sucrose and arginine in the salivary supernatant base. The test solutions have a final concentration of 0.05 and 0.1 bisabolol, respectively. The reaction mixtures are then incubated at 37 degrees Celsius for 30 minutes with mild agitation before determining ammonia production. A standard diagnostic ammonia assay kit is used to quantify ammonia produced.
Table 1 (below) describes the results of the procedures described above, wherein the ammonia production is measured in terms of nanomole per milligram (nm/mg).
Column A in Table 1 describes data collected for three trials of L-arginine (Control) reaction mixtures that contain salivary sediment and salivary supernatant with final concentrations of 0.1% sucrose and 0.0871% L-arginine. Column B in Table 1 describes data collected for three trials of 0.05% bisabolol plus arginine reaction mixtures that contain salivary sediment and salivary supernatant with final concentrations of 0.1% sucrose, 0.05% bisabolol and 0.0871% L-arginine. Column C in Table 1 describes data collected for three trials of 0.05% bisabolol reaction mixtures that contain salivary sediment and salivary supernatant with final concentrations of 0.1% sucrose and 0.05% bisabolol. Column D in Table 1 describes data collected for three trials of 0.1% bisabolol plus arginine reaction mixtures that contain salivary sediment and salivary supernatant with final concentrations of 0.1% sucrose, 0.1% Bisabolol and 0.0871% L-arginine. Column E in Table 1 describes data collected for three trials of 0.1% bisabolol reaction mixtures that contain salivary sediment and salivary supernatant with final concentrations of 0.1% sucrose and 0.1% bisabolol.

[1] = 0.0871% L-arginine, no bisabolol, 16.7% salivary sediment
[2] = 0.05% bisabolol (with 0.0871% L-arginine in the combination), salivary sediment
[3] = 0.1% bisabolol (with 0.0871% L-arginine in the combination), salivary sediment

Row | Structure (SMILES) | ammonia production, Trial 1 [1] [nm/mg] | ammonia production, Trial 2 [1] [nm/mg] | ammonia production, Trial 3 [1] [nm/mg] | ammonia production, Mean [1] [nm/mg] | ammonia production, Trial 1 [2] [nm/mg] | ammonia production, Trial 2 [2] [nm/mg] | ammonia production, Trial 3 [2] [nm/mg] | ammonia production, Trial 1 [3] [nm/mg] | ammonia production, Trial 2 [3] [nm/mg] | ammonia production, Trial 3 [3] [nm/mg] | ammonia production, Mean [2] [nm/mg] | ammonia production, Mean [3] [nm/mg]
1 | N=C(N)NCCC[C@H](N)C(=O)O [Arginine, L-arginine, reference compound] | 1532.40 | 1799.88 | 986.31 | 1439.53 | – | – | – | – | – | – | – | –
2 | CC(C)=CCC[C@](C)(O)C1CC=C(C)CC1 (stereo partly drawn) [Bisabolol, bisabolol] | – | – | – | – | 200.61 | 27.86 | 66.87 | 133.74 | 562.81 | 228.47 | 98.45 | 308.34
